# Experiments:
# Format in all cases: in vivo
# Rhipicephalus microplus [1] = experiment: Rhipicephalus (Boophilus) microplus injection test (BOOPMI Inj); details: 168 h, injection into adult engorged female ticks, egg deposition after 7 days, read-out: activity (efficacy: 100% means all eggs are infertile); for pest or weed control at 0.004 mg: application rate 4 μg/tick; for pest or weed control at 0.02 mg: application rate 20 μg/tick
# Procedure: Rhipicephalus (Boophilus) Microplus—Injection Test (BOOPMI Inj)
# Solvent: dimethyl sulfoxide
# To produce a suitable preparation of active compound, 10 mg of active compound are dissolved in 0.5 mL solvent, and the concentrate is diluted with solvent to the desired concentration.
# Five adult engorged female ticks (Rhipicephalus microplus) are injected with 1 μL compound solution into the abdomen. The ticks are transferred into replica plates and incubated in a climate chamber.
# After 7 days egg deposition of fertile eggs is monitored. Eggs where fertility is not visible are stored in a climate chamber till hatching after about 42 days. An efficacy of 100% means all eggs are infertile; 0% means all eggs are fertile.
# Spodoptera frugiperda = Spodoptera frugiperda spray test; details: in Zea mays, 168 h, read-out: activity (mortality)
# Procedure: Spodoptera Fruaiperda—Spray Test
# Solvent: 78.0 parts by weight acetone • 1.5 parts by weight dimethylformamide Emulsifier: alkylarylpolyglycol ether
# (§1) To produce a suitable preparation of active compound, 1 part by weight of active compound is mixed with the stated amount of solvents and is diluted with water, containing an emulsifier concentration of 1000 ppm, to the desired concentration. Further test concentrations are prepared by dilution with emulsifier containing water.
# Maize (Zea mays) leaf sections are sprayed with a preparation of the active ingredient of the desired concentration. Once dry, the leaf sections are infested with fall armyworm larvae (Spodoptera frugiperda).
# After 7 days mortality in % is determined. 100% means all caterpillars have been killed and 0% means none of the caterpillars have been killed.
# [2] = tested on: Musca domestica strain WHO—N; experiment: Musca domestica test (MUSCDO surface treatment & contact assay); details: surface concentration 20 mg/m^2, glazed tile, exposure 30 minutes, 24 hours after contact, read-out: efficacy (mortality)
# Procedure: Musca domestica Test (MUSCDO Surface Treatment & Contact Assay) Solvent: Aceton+2000 ppm rapeseed oil methyl ester (RME)
# (§2) In order to produce a sufficient, active ingredient containing solution it is necessary to solve the test compound in the solvent-mix (acetone at 2 mg/ml/RME 2000 ppm). This solution is pipetted onto a glazed tile and after evaporation of the acetone, adult flies of the species Musca domestica strain WHO—N are placed onto the dried surface. The exposure time is 30 minutes. Mortality in percent (%) is determined 24 hours after contact of the insects to the treated surface. 100% mortality means that all tested insects are dead, whereas 0% means that no insect died.
# Rhipicephalus microplus [3] = experiment: Rhipicephalus (Boophilus) microplus in-vitro contact test, larval cattle tick, strain Parkhurst (BOOPMI Cont); details: application rate 5 μg/cm^2 (=500 g/ha), tick larvae, after 48 hours, read-out: activity (efficacy: 100% means all larvae are dead or moribund)
# Procedure: Rhipicephalus (Boophilus) Microplus—In-Vitro Contact Tests Larval Cattle Tick (Strain Parkhurst, Resistant Against Synthetic Pyrethroids) (BOOPMI Cont)
# 9 mg compound is solved in 1 mL acetone and diluted with acetone to the desired concentration. 250 μL of the test solution is filled in 25 mL glass test tubes and homogeneously distributed on the inner walls by rotation and tilting on a shaking device (2 h at 30 rpm). With a compound concentration of 900 ppm, an inner surface of 44.7 cm^2 and a homogeneous distribution, a dose of 5 μg/cm^2 is achieved.
# After the solvent has evaporated, each test tube is filled with 20-50 cattle tick larvae (Rhipicephalus microplus), closed with a perforated lid and incubated in a horizontal position at 85% relative humidity and 27° C. in an incubator. After 48 hours efficacy is determined. The larvae are patted on the ground of the tubes and negative geotactic behavior is recorded.
# An efficacy of 100% means all larvae are dead or moribund; 0% means no larvae are dead or moribund.
# Diabrotica balteata = Diabrotica balteata spray test; details: 168 h, wheat seeds, larvae, after 7 days, read-out: activity (efficacy: 100% means all seedlings have grown up like in the untreated, uninfected control); for pest or weed control at 32 µg/disc, 100 g/ha: application rate 100 g/ha (=32 μg/well)
# Procedure: Diabrotica balteata—Spray Test Solvent: 78.0 parts by weight of acetone • • 1.5 parts by weight of dimethylformamide Emulsifier: alkylarylpolyglycol ether
# as §1, with “solvent,” for “solvents”, “and the concentrate” for “and”
# Soaked wheat seeds (Triticum aestivum) are placed in a multiple well plate filled with agar and some water and are incubated for 1 day to germinate (5 seeds per well). The germinated wheat seeds are sprayed with a test solution containing the desired concentration of the active ingredient. Afterwards each unit is infected with 10-20 larvae of the banded cucumber beetle (Diabrotica balteata).
# After 7 days efficacy in % is determined. 100% means all the seedlings have grown up like in the untreated, uninfected control; 0% means none of the seedlings have grown.
# Ctenocephalides felis = Ctenocephalides felis oral test (CTECFE Oral); details: 48 h, read-out: activity (mortality)
# Procedure: Ctenocephalides felis—Oral Test (CTECFE Oral) Solvent: dimethyl sulfoxide
# To produce a suitable preparation of active compound, 10 mg of active compound are dissolved in 0.5 mL solvent, and the concentrate is diluted with cattle blood to the desired concentration.
# Approximately 20 adult unfed cat fleas (Ctenocephalides felis) are placed in flea chambers. The blood chamber, sealed with parafilm on the bottom, are filled with cattle blood supplied with compound solution and placed on the gauze covered top of the flea chamber, so that the fleas are able to suck the blood. The blood chamber is heated to 37° C. whereas the flea chamber is kept at room temperature.
# After 2 days mortality in % is determined. 100% means all the fleas have been killed; 0% means none of the fleas have been killed.
# Rhipicephalus sanguineus = Rhipicephalus sanguineus in-vitro contact test, adult brown dog ticks (RHIPSA Cont); details: 48 h, after 48 hours, read-out: activity (efficacy: 100% means all ticks are dead or moribund); for pest or weed control at 1 µg/cm2, 100 g/ha: application rate 1 μg/cm^2 (=100 g/ha); for pest or weed control at 5 µg/cm2, 500 g/ha: application rate 5 μg/cm^2 (=500 g/ha)
# Procedure: Rhipicephalus sanguineus-In-Vitro Contact Tests with Adult Brown Dog Ticks ([…] Cont) 9 mg compound is solved in 1 mL acetone and diluted with acetone to the desired concentration. 250 μL of the test solution is filled in 25 mL glass test tubes and homogeneously distributed on the inner walls by rotation and tilting on a shaking device (2 h at 30 rpm). […] After 48 hours efficacy is determined. The ticks are patted on the ground of the tubes and are incubated on a heating plate at 45-50° C. for at most 5 minutes. Immotile or uncoordinated moving ticks, which are not able to escape the heat by climbing upwards, are marked as dead or moribund.
# [4] = tested on: Aedes aegypti strain MONHEIM; experiment: Aedes aegypti test (AEDSAE surface treatment & contact assay); details: exposure 30 minutes, 24 hours after contact, read-out: efficacy (mortality); for mortality at 20 mg/m2: surface concentration 20 mg/m^2, glazed tile; for mortality at 4 mg/m2: surface concentration 4 mg/m^2, glazed tile
# Procedure: Aedes aegypti Test (AEDSAE Surface Treatment & Contact Assay) Solvent: Aceton+2000 ppm rapeseed oil methyl ester (RME)
# as §2, with “mosquitoes” for “flies”, “Aedes aegypti” for “Musca domestica”, “MONHEIM” for “WHO—N”
# Myzus persicae = Myzus persicae oral test; details: 120 h, read-out: activity (mortality)
# Procedure: Myzus persicae—Oral Test Solvent: 100 parts by weight acetone
# To produce a suitable preparation of active compound, 1 part by weight of active compound is mixed with the stated amount of solvent, and the concentrate is diluted with water to the desired concentration.
# 50 μL compound solution is filled in microtiter plates and 150 μL IPL41 insect medium (33%+15% sugar) is added to obtain a total volume of 200 μL per well. Afterwards the plates are sealed with parafilm through which a mixed population of the green peach aphid (Myzus persicae) can suck on the compound preparation.
# After 5 days mortality in % is determined. 100% means all aphids have been killed and 0% means none of the aphids have been killed.
SMILES,pest or weed control at 0.004 mg (Rhipicephalus microplus [1]) [%],pest or weed control at 0.02 mg (Rhipicephalus microplus [1]) [%],mortality at 100 g/ha (Spodoptera frugiperda) [%],mortality at 20 mg/m2 [2] [%],pest or weed control at 5 µg/cm2 (Rhipicephalus microplus [3]) [%],"pest or weed control at 32 µg/disc, 100 g/ha (Diabrotica balteata) [%]",mortality at 100 ppm (Ctenocephalides felis) [%],"pest or weed control at 1 µg/cm2, 100 g/ha (Rhipicephalus sanguineus) [%]","pest or weed control at 5 µg/cm2, 500 g/ha (Rhipicephalus sanguineus) [%]",mortality at 20 mg/m2 [4] [%],mortality at 4 ppm (Myzus persicae) [%],mortality at 4 mg/m2 [4] [%],mortality at 500 g/ha (Spodoptera frugiperda) [%],"pest or weed control at 160 µg/disc, 500 g/ha (Diabrotica balteata; application rate 500 g/ha (=160 μg/well)) [%]"
C[C@H](NC(=O)c1cc(Cl)cc(OC(F)F)c1)c1nc(C2CC2)nn1-c1ccc(C#N)cn1 [I-34],100,100,100,80 to 100,90,100,100,,,,,,,
CC(C)c1nc([C@H](C)NC(=O)c2cncc(Br)c2)n(-c2ccc(C#N)cn2)n1 [I-27],100,100,,,90,,100,100,100,80 to 100,,,,
CC[C@H](NC(=O)c1cc(Cl)cc(C(F)(F)F)c1)c1ncnn1-c1ncc(OC(F)F)cn1 [II-64],100,100,100,,100,100,100,,80,80 to 100,,,,
C[C@H](NC(=O)c1cc(Br)cc(C(F)(F)F)c1)c1nc(C2CC2)nn1-c1ccc(C#N)cn1 [I-31],100,100,,80 to 100,100,100,100,,80,,100,,,
C[C@H](NC(=O)c1cc(Cl)cc(Br)c1)c1nc(C2CC2)nn1-c1ccc(C#N)cn1 [I-32],100,100,100,,100,100,100,80,100,,100,,,
Cc1nc([C@H](C)NC(=O)c2cncc(Br)c2)n(-c2ccc(C#N)cn2)n1 [II-49],100,100,,,100,100,100,,100,,,80 to 100,,
"CC(NC(=O)c1cc(C(F)(F)F)cc(C(F)(F)F)c1)c1nc(Br)nn1-c1ccc(C#N)cn1 (racemic) [I-48, 3,5-di(trifluoromethyl)-N-{1-[3-bromo-1-(3-cyano-pyridin-6-yl)-1H-1,2,4-triazol-5-yl]ethyl}-benzamide]",100,,100,,100,100,100,,,,90,,,
C[C@H](NC(=O)c1cc(Br)cc(C#N)c1)c1nc(C2CC2)nn1-c1ccc(C#N)cn1 [I-35],100,100,,80 to 100,100,100,100,,,80 to 100,,,,
"COc1nc([C@H](C)NC(=O)c2cc(Cl)cc(C(F)(F)F)c2)n(-c2ccc(C#N)cn2)n1 [I-10, 3-chloro-N-{(1S)-1-[1-(5-cyanopyridin-2-yl)-3-methoxy-1H-1,2,4-triazol-5-yl]ethyl}-5-(trifluoromethyl)benzamide]",100,100,100,80 to 100,100,100,100,,,,100,,100,100
C[C@H](NC(=O)c1cc(Br)c(F)c(Br)c1)c1ncnn1-c1ccc(C#N)cn1 [II-82],100,,100,,100,80,100,80,80,80 to 100,,80 to 100,,

# Reference: US20220274947A1, “NOVEL HETEROARYL-TRIAZOLE COMPOUNDS AS PESTICIDES” (Bayer Aktiengesellschaft, priority 2019, published 2022)
